One data set deals with L6 myotubes. As to the kind of experiment: Enzymatic 2DG glucose uptake assay in L6 myotubes. In kind it is cell-based, rat. As to conditions: 4 h; for glucose uptake, shape of concentration dependence: 0.01–10^4 nM. As to the method: (§1) In vitro cultured cell experiments were conducted according to a previously described protocol[6],[14]. Briefly, L6 myoblasts derived from rat skeletal muscle and of less than 40 passages were maintained in MEM supplemented with 10% foetal bovine serum (FBS) and antibiotics (100 U/ml penicillin and 100 μg/ml streptomycin) at 37 °C under a humidified atmosphere condition of 5% CO2 and 95% air. In each experiment, cells (2.2 × 10^4 cells/ml) were seeded into 96-well plates or 60-mm dishes for induction of differentiation into mature myotubes. After reaching confluence, cells were supplemented with differentiation medium containing 2% FBS and the same antibiotics for 7 days. Cells were used for each experiment after morphological analysis of differentiation status using phase-contrast microscopy. To explore the contribution of CaMKKβ or intracellular-free calcium ions in quercetin- and isorhamnetin-stimulated GLUT4 translocation, L6 cells were incubated in the presence or absence of 10 μM STO-609 and 25 μM […], respectively, for 30 min prior to treatment with either quercetin or isorhamnetin.
After serum starvation by incubating L6 myotubes in MEM with 0.2% BSA for 18 h, cells were treated with quercetin and isorhamnetin at the specified concentration (0.01 nM–10 μM) for 4 h in 0.2% BSA-containing medium. DMSO and insulin (100 nM) were used as a vehicle control and positive control, respectively. Glucose uptake was measured by an enzymatic 2DG uptake assay using myotubes on a 96-well plate as previously described.

A short description of data set [1]: Plasma concentrations of quercetin and isorhamnetin in mice after oral EMIQ (HPLC). Type of data set: in vivo. The settings on record: male, ICR, mouse, HPLC without deconjugation, read-out: Concentration in plasma, Aglycone form. As to the method:
All animal experiments were performed according to the guidelines for animal experiments at Kobe University Animal Experimentation Regulation and approved by the Institutional Animal Care and Use Committed of Kobe University (Permission 29-05-02). Male ICR mice (5 weeks old, n = 20) were obtained from Japan SLC (Shizuoka, Japan) and maintained at constant temperature (23 ± 2 °C) with a 12 h light-dark cycle (lights on at 8:00 am). Mice were subsequently randomly divided into four groups of five each, and acclimatized for 1 week with free access to tap water and a laboratory-purified diet (3.850 kcal/g diet) consisting of 76% carbohydrate, 15% protein and 9% fat) (Research Diets, Tokyo, Japan). For analysis of concentrations of quercetin and isorhamnetin in the plasma and GLUT4 translocation in the muscle, mice were orally administrated EMIQ at 10, 100, or 1000 mg/kg body weight, or water as a vehicle control after 18 h fasting. The mice were sacrificed 90 min after the administration under anesthesia using sodium pentobarbital and seroflurane, and euthanized by exsanguination from cardiac puncture. Plasma and soleus muscle were collected, and kept at -80 °C until use.
To determine the levels of quercetin and isorhamnetin after administration of EMIQ, the obtained plasma were analyzed using HPLC (UV 370 nm) with or without deconjugation treatment using glucuronidase/sulfatase[16]. Briefly, an aliquot of 250 μl of plasma was mixed with 50 μl of 20% (w/v) ascorbic acid and incubated with 125 μl of 75 mM potassium phosphate buffer (pH 6.8) with or without 500 U/sample β-glucronidase and 125 μl of 200 mM sodium acetate buffer (pH 5.0) with or without 10 U/sample sulfatase for 2 h at 37 °C after adding 2 μl of 1 mM nobiletin as an internal standard. To separate quercetin and isorhamnetin, mixture was applied on a Sep-Pak C18 1 cc Vac Cartridge and eluted with 2 ml 95% (v/v) methanol. After eluate was dried by evaporation, dried material was dissolved in 50 μl of 50% (v/v) methanol and applied to HPLC. HPLC was performed using a SHIMADZU LabSolutions system (SHIMADZU, Kyoto, Japan) with SPD-M20A diode array detector. HPLC separation was done with a gradient system using 0.02% aqueous phosphoric acid as mobile phase A and acetonitrile as mobile phase B with a Cadenza CL-C18 column (φ 4.6 mm × 250 mm, Kyoto, Japan) at a flow rate of 1.0 ml/min. The gradient program was 0–13 min, 20% B, 13–33 min, 50–80% B, 33–43 min, 100% B, 43–60 min, 20% B.

A further data set concerns GLUT4. The experiment in a line: GLUT4 translocation to the plasma membrane in L6 myotubes (western blot). Type of data set: cell-based, rat. The settings on record: for GLUT4 translocation to the plasma membrane / expression level of GLUT4: 15 min; for expression level of GLUT4: 0.1–10 nM. As to the method:
as §1
For in vitro cell culture experiments, after serum starvation for 18 h, myotubes were treated with various concentrations of quercetin or isorhamnetin (0.1–10 nM) for 15 min; DMSO (final 0.1%) was used as a vehicle control. As positive controls, 100 nM insulin, 1 mM AICAR, 10 nM leptin, or 100 ng/mL IL-15 were used for insulin, AMPK, JAK2/STAT, or JAK3/STAT signalling pathways, respectively. Cells were treated with insulin or AICAR for 15 min, leptin for 60 min, or IL-15 for 24 h. Whole protein and plasma membrane fractions were prepared from myotubes, as previously described. For in vivo experiment, plasma membrane fraction and tissue lysate of soleus muscle were prepared.
Translocation of GLUT4 to the plasma membrane, as well as expression and phosphorylation levels of GLUT4-related regulators were estimated by western blot analysis. Briefly, equal amounts of proteins were separated by sodium dodecyl sulfate-polyacrylamide gel electrophoresis (SDS-PAGE). Separated proteins were transferred onto a polyvinylidene fluoride membrane and nonspecific binding sites were blocked using either Blocking One (to detect unphosphorylated proteins) or Blocking One-P (to detect phosphoproteins). The membrane was incubated overnight with an appropriate primary antibody for GLUT4 (1:5000), IR (1:10000), p-IRS1 (1:5000), IRS1 (1:5000), p-PI3K (1:5000), PI3K (1:10000), p-Akt (1:5000), Akt (1:10000), p-AMPKα (1:5000), AMPKα (1:10000), p-ACC (1:5000), ACC (1:10000), p-LKB1 (1:5000), LKB1 (1:10000), p-JAK2 (1:5000), JAK2 (1:5000), p-JAK3 (1:5000), JAK3 (1:10000), p-STAT1 (1:5000), STAT1 (1:10000), p-STAT3 (1:5000), STAT3 (1:10000), p-STAT5 (1:5000), STAT5 (1:10000), or β-actin (1:20000), and subsequently treated with the corresponding horseradish peroxidase-conjugated secondary antibody (1:50000) for 1 h. Specific immune complexes were developed using ImmunoStar® LD and detected with an ATTO Light-Capture II Western Blotting Detection System. Individual band density was calculated by ImageJ and normalized to the control.
(A western blot detects proteins with antibodies after separation by electrophoresis.)

The mark [2] stands for this setting: 0.01 nM to 1 nM, compared with vehicle (DMSO).

Like-named read-outs stand apart in the source and are kept apart here.

The record followed here is publication PMC6389993, “Quercetin and its metabolite isorhamnetin promote glucose uptake through different signalling pathways in myotubes” (Scientific Reports, 2019).

In the case of `COc1cc(-c2oc3cc(O)cc(O)c3c(=O)c2O)ccc1O` [isorhamnetin, 3′-O-methyl quercetin], the glucose uptake result in the data set on L6 myotubes (setting [2]) was “increased glucose uptake in a dose-dependent manner”; with L6 myotubes (1 nM), “significant increase”; in the data set with L6 myotubes (10 nM), “decreased glucose uptake”; with L6 myotubes (100 nM), “decreased glucose uptake”; in the data set with L6 myotubes (1 μM), “significant increase”; in the data set with L6 myotubes (10 μM), “significant increase”. In the data set on L6 myotubes, the “glucose uptake, shape of concentration dependence” value was “biphasic increase in glucose uptake”. Besides, the concentration at 90 min in data set [1] (in vivo, 90 min after oral EMIQ 1000 mg/kg body weight) was 0.131 ± 0.0515 µM. Further, the “GLUT4 translocation to the plasma membrane” value in the data set on GLUT4 (1 nM) and in the data set with GLUT4 (10 nM) was “significantly increased GLUT4 translocation” in each case. Besides, the “expression level of GLUT4” value with GLUT4 was “remained unchanged”.
In the case of `O=c1c(O)c(-c2ccc(O)c(O)c2)oc2cc(O)cc(O)c12` [quercetin, 3,3′,4′,5,7-pentahydroxy flavone], the glucose uptake entry with L6 myotubes (setting [2]) was “increased glucose uptake in a dose-dependent manner”; in the data set on L6 myotubes (0.1 nM), “significant increase”; in the data set on L6 myotubes (1 nM) it was “significant increase”; in the data set with L6 myotubes (10 nM) it was “decreased glucose uptake”; in the data set with L6 myotubes (100 nM) it was “decreased glucose uptake”; in the data set on L6 myotubes (1 μM), “significant increase”. Also, the glucose uptake result with L6 myotubes (10 μM) is on record as “significant increase”. The “glucose uptake, shape of concentration dependence” value in the data set with L6 myotubes was “biphasic increase in glucose uptake”. Also, the concentration at 90 min in data set [1] (plasma, oral, 90 min after oral EMIQ 10 mg/kg body weight) was found to be 0.00495 ± 0.00082 µM; in data set [1] (plasma, oral, 90 min after oral EMIQ 100 mg/kg body weight) it was 0.0068 ± 0.002 µM; in data set [1] (plasma, oral, 90 min after oral EMIQ 1000 mg/kg body weight), 0.138 ± 0.0451 µM. Further, the “GLUT4 translocation to the plasma membrane” value in the data set with GLUT4 (0.1 nM), in the data set with GLUT4 (1 nM) and in the data set with GLUT4 (10 nM) was “significantly increased GLUT4 translocation” in each case. Moreover, the “time-dependent changes in GLUT4 translocation” value with GLUT4 (1 nM, monitored 0–240 min) is on record as “bell-shaped curve”. In addition, the “expression level of GLUT4” value in the data set on GLUT4 is “remained unchanged”.
